Assay results reported in article PMC12152147, “DDB1 engagement defines the selectivity of S656 analogs for cyclin K degradation over CDK inhibition” (EMBO Reports, 2025).
Read-outs that look alike come from different tables or passages of the source.

Assays:
OCI-AML5 cells = assay: Dose-response proliferative assay in OCI-AML5 (4 days, CellTiterGlo); format: cell-based, H. sapiens; details: read-out: IC50 in AML5
Protocol: Cell lines were purchased from the ATCC or donated from collaborators. OCI-AML5 cell line was cultured in αMEM, 10% heat-inactivated FBS supplemented with 10 ng/mL GM-CSF, OCI-AML1, U2OS and HEK293T cell lines in DMEM, 10% heat-inactivated FBS. Cells were maintained at 37 °C in 5% CO2 atmosphere.
Dose-response assays in primary AML specimens were performed as in chemical screen (see above) with the exception that compounds were tested in serial dilution (8 dilutions, 1:4, 10 μM down to 0.5 nM). Dose-response assays in OCI-AML5 cell line were conducted similarly with the following modifications: 300 cells per well were seeded in 50 μL of cell line media and cell viability was evaluated after 4 days in culture.

CDK1 = target: T1, CDK1 (Homo sapiens, UniProt P06493); assay: CDK1 in vitro kinase activity, single concentration 1 μM; format: biochemical; details: single concentration 1 μM
T1 construct: purchased BPS Bioscience 79597
T1 sequence (P06493 whole entry): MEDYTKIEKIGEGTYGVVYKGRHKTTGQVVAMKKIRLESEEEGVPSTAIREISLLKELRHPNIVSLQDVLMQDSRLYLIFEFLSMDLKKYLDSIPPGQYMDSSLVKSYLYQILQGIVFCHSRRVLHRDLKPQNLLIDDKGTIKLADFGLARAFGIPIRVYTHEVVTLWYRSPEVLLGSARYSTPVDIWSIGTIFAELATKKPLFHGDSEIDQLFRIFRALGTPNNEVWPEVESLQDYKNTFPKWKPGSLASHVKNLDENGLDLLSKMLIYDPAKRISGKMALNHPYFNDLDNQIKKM
T1 sequence (P14635 whole entry partner): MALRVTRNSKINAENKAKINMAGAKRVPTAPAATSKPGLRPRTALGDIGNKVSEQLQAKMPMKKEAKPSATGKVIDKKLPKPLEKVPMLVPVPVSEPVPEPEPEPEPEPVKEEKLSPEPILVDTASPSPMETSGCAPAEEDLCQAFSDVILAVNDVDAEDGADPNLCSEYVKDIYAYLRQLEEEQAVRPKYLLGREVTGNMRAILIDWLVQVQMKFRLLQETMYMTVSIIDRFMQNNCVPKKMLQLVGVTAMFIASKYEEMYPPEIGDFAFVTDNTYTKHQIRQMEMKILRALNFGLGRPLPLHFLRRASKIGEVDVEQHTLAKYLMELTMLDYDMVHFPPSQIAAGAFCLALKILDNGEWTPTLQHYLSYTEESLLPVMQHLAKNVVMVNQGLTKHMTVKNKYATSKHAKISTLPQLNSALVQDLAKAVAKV
Protocol: (§1) Kinase activity was assessed using the kinase assay kits from BPS Bioscience for CDK1, CDK9 and CDK12 with Kinase Glo MAX in duplicates. Compounds were tested at a single concentration of 1 μM for CDK1 and CDK9 activity, and in a dilution ranging from 0.64 nM to 50 μM for CDK12 activity. Chemiluminescence was read using the Neo Synergy BioTek plate reader.

CDK9/CyclinT = target: T2, CDK9/CyclinT (Homo sapiens, UniProt P50750); assay: CDK9/CyclinT in vitro kinase activity, single concentration 1 μM; format: biochemical; details: single concentration 1 μM
T2 construct: purchased BPS Bioscience 79628
T2 sequence (P50750 whole entry): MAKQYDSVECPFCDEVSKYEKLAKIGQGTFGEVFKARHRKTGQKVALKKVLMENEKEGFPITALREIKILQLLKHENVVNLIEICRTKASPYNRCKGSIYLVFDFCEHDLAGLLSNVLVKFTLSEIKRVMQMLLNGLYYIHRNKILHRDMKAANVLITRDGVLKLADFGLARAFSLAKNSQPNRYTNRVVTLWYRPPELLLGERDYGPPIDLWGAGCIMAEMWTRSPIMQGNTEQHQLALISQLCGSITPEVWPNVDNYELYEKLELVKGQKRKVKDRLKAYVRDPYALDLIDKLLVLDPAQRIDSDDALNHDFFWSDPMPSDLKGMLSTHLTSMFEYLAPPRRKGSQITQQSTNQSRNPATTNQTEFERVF
T2 sequence (O60563 whole entry partner): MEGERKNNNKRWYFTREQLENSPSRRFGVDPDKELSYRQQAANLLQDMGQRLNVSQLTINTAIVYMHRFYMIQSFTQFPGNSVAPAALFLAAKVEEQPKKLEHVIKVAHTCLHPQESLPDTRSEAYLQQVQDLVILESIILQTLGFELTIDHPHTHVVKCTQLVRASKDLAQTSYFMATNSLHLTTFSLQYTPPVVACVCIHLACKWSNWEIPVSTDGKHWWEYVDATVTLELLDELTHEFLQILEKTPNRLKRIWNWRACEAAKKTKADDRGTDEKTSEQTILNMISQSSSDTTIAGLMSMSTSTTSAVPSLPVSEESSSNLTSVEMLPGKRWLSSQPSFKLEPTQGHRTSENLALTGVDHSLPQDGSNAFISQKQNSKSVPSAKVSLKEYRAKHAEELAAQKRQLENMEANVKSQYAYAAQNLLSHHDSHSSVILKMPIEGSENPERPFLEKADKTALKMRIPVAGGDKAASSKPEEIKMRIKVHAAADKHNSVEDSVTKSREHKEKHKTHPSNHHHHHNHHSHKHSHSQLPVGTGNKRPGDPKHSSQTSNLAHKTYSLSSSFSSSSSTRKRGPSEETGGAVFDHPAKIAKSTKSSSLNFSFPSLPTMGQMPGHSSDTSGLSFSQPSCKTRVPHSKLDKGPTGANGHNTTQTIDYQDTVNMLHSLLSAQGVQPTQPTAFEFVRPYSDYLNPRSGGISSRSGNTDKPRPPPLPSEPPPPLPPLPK
Protocol: as §1

[1] = system: OCI-AML5 cells expressing shRNAs targeting CDK1, 2, 4, 7, 9, cyclin K; assay: Dose response in OCI-AML5 expressing shRNAs targeting CDK1, 2, 4, 7, 9, cyclin K or control; format: cell-based, H. sapiens; details: for Class: class from shRNA IC50 profile and cyclin K-eGFP degradation; for class based on cellular selectivity: IC50 in shRNA OCI-AML5 cells and cyclin KeGFP degradation
cyclin KeGFP = assay: Cyclin KeGFP reporter system (eGFP/mCherry MFI by flow cytometry);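 note: 10 μM compound for 3 h relative to DMSO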; format: cell-based, H. sapiens; details: cyclin K-eGFP reporter
Protocol: We used the cyclin KeGFP reporter system previously described (Słabicki et al, [2020]). Lentiviral vector (Addgene plasmid #169930) was used to infect OCI-AML5 at a MOI of 5 and were selected with puromycin. Cells were seeded in methylcellulose and let grown as colonies for 10 days. Colonies were isolated, expanded and selected based on cyclin KeGFP fluorescence in presence and absence of cyclin K degrader molecules. Selected G7 clone was used for all reported experiments. Fluorescent signal of cyclin KeGFP and mCherry were quantified by flow cytometry (BD LSRII) in each condition and the geometric mean fluorescence intensity (MFI) were calculated using FlowJo (BD Biosciences). The ratio of eGFP to mCherry was normalized to DMSO-treated cells.

[2] = system: OCI-AML5 cells expressing shRNA targeting CUL4A or CUL4B; assay: Dose response in OCI-AML5 expressing shRNAs targeting CUL4A, CUL4B or control; format: cell-based, H. sapiens; details: ratio of IC50 in shCUL4A vs shCTRL OCI-AML5 cells
[3] = Homo sapiens, OCI-AML-5, OCI-AML5 cells
[4] = Homo sapiens, OCI-AML-5, OCI-AML5 expressing shRNA CCNK (cyclin K), read-out: IC50 shRNA CCNK
[5] = Homo sapiens, OCI-AML-5, OCI-AML5 expressing shRNA CDK1, read-out: IC50 shRNA CDK1
[6] = Homo sapiens, OCI-AML-5, OCI-AML5 expressing shRNA CDK2, read-out: IC50 shRNA CDK2
[7] = Homo sapiens, OCI-AML-5, OCI-AML5 expressing shRNA CDK4, read-out: IC50 shRNA CDK4
[8] = Homo sapiens, OCI-AML-5, OCI-AML5 expressing shRNA CDK7, read-out: IC50 shRNA CDK7
[9] = Homo sapiens, OCI-AML-5, OCI-AML5 expressing shRNA CDK9, read-out: IC50 shRNA CDK9
[10] = OCI-AML5 expressing shRNA CCNK (cyclin K), read-out: IC50 shRNA CCNK
[11] = OCI-AML5 expressing shRNA CDK1, read-out: IC50 shRNA CDK1
[12] = OCI-AML5 expressing shRNA CDK2, read-out: IC50 shRNA CDK2
[13] = OCI-AML5 expressing shRNA CDK4, read-out: IC50 shRNA CDK4
[14] = OCI-AML5 expressing shRNA CDK7, read-out: IC50 shRNA CDK7
[15] = OCI-AML5 expressing shRNA CDK9, read-out: IC50 shRNA CDK9

| SMILES | IC50 (OCI-AML5 cells; [3]) [µM] | inhibition at 1 µM (CDK1) [%] | inhibition at 1 µM (CDK9/CyclinT) [%] | IC50 [1, 4] [µM] | IC50 [1, 5] [µM] | IC50 [1, 6] [µM] | IC50 [1, 7] [µM] | IC50 [1, 8] [µM] | IC50 [1, 9] [µM] | Class [1] | % degradation cyclin K-eGFP (cyclin KeGFP) [%] | Ratio shCUL4A/shCTRL [2] | other results |
| --- | --- | --- | --- | --- | --- | --- | --- | --- | --- | --- | --- | --- | --- |
| CC(=O)N[C@@H]1CCC[C@H](C(=O)Nc2cc(-c3cnn4c3CC(C)(C)C4)c(Cl)cn2)C1 [AZD4573, reference compound] | 0.001 | 90 | 100 | 0.00109 | 0.00106 | 0.00106 | 0.00105 | 0.00167 | 0.000727 | 2 |  |  |  |
| [N-]=[N+]=Nc1ccc(CC(=O)Nc2ncc(SCc3cccnc3)s2)cc1 [UOM-005062] | 2.18 | 63 | 99 | 0.921 | 1.28 | 2.31 | 2.62 | 2.52 | 1.49 | mixed 1-2 | 45 | 1.35 |  |
| O=C(Cc1ccccc1)Nc1ncc(SCc2cccnc2)s1 [UOM-005190] |  |  |  |  |  |  |  |  |  | 2 | 26 | 1.19 | IC50 (OCI-AML5 cells; OCI-AML5 cells): 2.38 µM; % CDK1 inhibition (CDK1): 79%; % CDK9 inhibition (CDK9/CyclinT): 24%; IC50 [1, 10]: 2.53 µM; IC50 [1, 11]: 0.815 µM; IC50 [1, 12]: 2.69 µM; IC50 [1, 13]: 3.28 µM; IC50 [1, 14]: 2.9 µM; IC50 [1, 15]: 1.66 µM |
| O=C(Cc1ccc(F)cc1)Nc1ncc(SCc2cccnc2)s1 [UOM-005197] | 2.79 | 59 | 57 | 3.58 | 1.35 | 2.69 | 3.4 | 3.36 | 1.81 | 2 | 24 | 1.15 | class based on cellular selectivity [1]: Class II |
| O=C(Cc1ccc(Cl)cc1)Nc1ncc(SCc2cccnc2)s1 [UOM-005198] | 2.92 | 51 | 32 | 3.04 | 1.3 | 2.76 | 3.43 | 3.43 | 2.1 | 2 | 33 | 1.12 | class based on cellular selectivity [1]: Class II |
| O=C(Cc1ccc(Br)cc1)Nc1ncc(SCc2cccnc2)s1 [UOM-005199] | 2.56 | 60 | 100 | 1.5 | 1.18 | 2.94 | 2.83 | 2.8 | 1.78 | mixed 1-2 | 64 | 0.67 |  |
| O=C(Cc1ccc(I)cc1)Nc1ncc(SCc2cccnc2)s1 [UOM-005200] | 1.06 | 87 | 62 | 0.368 | 1.07 | 1.28 | 1.11 | 1.51 | 1.02 | 1 | 77 | 2.36 | class based on cellular selectivity [1]: Class I (effective cyclin K MGDs (decreased IC50 in cyclin K depleted cells only, and >65% degradation of cyclin KeGFP)) |
| COc1ccc(CC(=O)Nc2ncc(SCc3cccnc3)s2)cc1 [UOM-005201] | 3 | 69 | 54 | 2.01 | 1.03 | 2.88 | 3.38 | 3.11 | 1.39 | 2 | 55 | 0.99 | class based on cellular selectivity [1]: Class II |
| O=C(Nc1ncc(SCc2cccnc2)s1)C1CCNCC1 [UOM-005283] | 3.86 |  | 71 | 3.7 | 4.18 | 4.64 | 3.9 | 3.02 | 2.84 |  | 4 | 0.91 |  |
| Cl.Cl.O=C(CC1CCNC1)Nc1ncc(SCc2cccnc2)s1 (stereo not shown) [UOM-005300] | 7.07 |  | 64 | 5.41 | 3.38 | 5.42 | 4.45 | 2.9 | 3.01 | 2 | 5 | 1.07 |  |
| C=C(C(=O)Nc1ncc(SCc2cccnc2)s1)c1ccc2c(c1)[nH]c1ccc(Cl)cc12 [UOM-005447] | 7.36 |  | 73 | 5.41 | 3.21 | 3.43 | 3.94 | 4.09 | 4.74 | 2 | 63 | 0.72 |  |
| O=C(Cc1ccc(NC(=O)c2ccccn2)cc1)Nc1ncc(SCc2cccnc2)s1 [UOM-005474] | 1.24 |  | 59 | 1 | 0.753 | 0.927 | 1.07 | 0.949 | 0.551 | 2 | 5 | 1.03 |  |
| O=C(Cc1ccc(NC(=O)C23CC4CC(CC(C4)C2)C3)cc1)Nc1ncc(SCc2cccnc2)s1 [UOM-005477] |  |  |  |  |  |  |  |  |  | 2 | 6 | 0.9 | IC50 (OCI-AML5 cells; OCI-AML5 cells): 1.25 µM; % CDK9 inhibition (CDK9/CyclinT): 81%; IC50 [1, 10]: 1.03 µM; IC50 [1, 11]: 0.741 µM; IC50 [1, 12]: 1.09 µM; IC50 [1, 13]: 1.2 µM; IC50 [1, 14]: 0.94 µM; IC50 [1, 15]: 0.595 µM |
| O=C(Cc1ccc(NC(=O)c2ccccc2)cc1)Nc1ncc(SCc2cccnc2)s1 [UOM-005478] | 1.35 |  | 82 | 1.06 | 0.548 | 1.08 | 1.05 | 1.02 | 0.355 | 2 | 8 | 0.95 |  |
| O=C(Cc1cnccn1)Nc1ncc(SCc2cccnc2)s1 [UOM-005482] | > 10 | 34 | 20 | > 10 | 3.22 | > 10 | > 10 | > 10 | 5.92 | 2 | 0 |  |  |
| O=C(Cc1ccccn1)Nc1ncc(SCc2cccnc2)s1 [UOM-005566] | 6.56 |  | 15 | 6.05 | 3.92 | 7.03 | 8.88 | 7.58 | 5.48 | 2 | 4 | 1.07 |  |
| O=C(Cc1ccc(N2CCCCC2)cc1)Nc1ncc(SCc2cccnc2)s1 [UOM-005607] | 1.85 |  | 90 | 0.866 | 0.792 | 3.01 | 2.19 | 2.05 | 0.909 | mixed 1-2 | 30 | 0.9 |  |
